Experimental findings from patent US20100247435A1, “MEASUREMENT OF NEURAL ACTIVITY” (priority 2007, published 2010) are described below.

The nature of the series: Biodistribution of 3H compound in rat. In kind it is in vivo, Rats (Wistar). The settings on record: Wistar rat, 2, 5, 20 and 40 min p.i. The protocol: A tritiated version of 3-[2,4-Difluoro-phenoxy]-phenyl-pyrazole-1-carboxylic acid amide (“Hammersmith compound” in FIG. 1) was custom prepared by GE Healthcare, Cardiff.
Rats (Wistar, ca. 150 g; Charles River UK Ltd) were injected with 0.37 MBq of [^3H]-3-[2,4-Difluoro-phenoxy]-phenyl-pyrazole-1-carboxylic acid amide, as an intravenous bolus via the tail vein. Rats were killed by cervical dislocation at 2, 5, 20 and 40 min post injection (p.i.). Brain (separated as cortex and hippocampus), blood, and major organs were collected, weighed and burned using a Packard Tissue Oxidizer model 307 (Packard Instrument Co., Meriden, Conn.). Samples were then counted in a β-counter (Rack Beta, Perkin Elmer LAS (UK) Ltd).

On to `NC(=O)n1ccc(-c2ccc(Oc3ccc(F)cc3F)cc2)n1` [[^3H]-3-[2,4-Difluoro-phenoxy]-phenyl-pyrazole-1-carboxylic acid amide], for which the time activity curves result (0.37 MBq i.v., FIG. 1) was “consistent with reversible binding”. In addition, the “brain uptake of the compound” value (0.37 MBq intravenous bolus via tail vein, % id/g shown in FIG. 1) is “good”.
